Test results reported in ChEMBL document CHEMBL1201862, “PubChem BioAssay data set” (2004).
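Following 48 hours of exposure in 96-well plates, responses at five concentrations were used to interpolate endpoints linearly. GI50: concentration for 50% inhibition of growth.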 The source made the active and inactive calls. Rule as the data show it: active = GI50 up to about 1.1 µM and inactive = higher.

Key:
Experiment in all cases: DTP human tumour cell line panel, 48 h
NCI-H460 = tested on: NCI-H460
MOLT-4 = tested on: MOLT-4
HOP-62 = tested on: HOP-62
LOX IMVI = tested on: LOX IMVI
UACC-62 = tested on: UACC-62
UO-31 = tested on: UO-31
SNB-19 = tested on: SNB-19
CAKI-1 = tested on: CAKI-1
NCI-H23 = tested on: NCI-H23
HCC 2998 = tested on: HCC 2998
K562 = tested on: K562
COLO 205 = tested on: COLO 205
A498 = tested on: A498
HCT-116 = tested on: HCT-116
PC-3 = tested on: PC-3
T47D = tested on: T47D
MDA-MB-435 = tested on: MDA-MB-435
MDA-MB-231 = tested on: MDA-MB-231

| SMILES | GI50 (NCI-H460) | GI50 (MOLT-4) | GI50 (HOP-62) | GI50 (LOX IMVI) | GI50 (UACC-62) | GI50 (UO-31) | GI50 (SNB-19) | GI50 (CAKI-1) | GI50 (NCI-H23) | GI50 (HCC 2998) | GI50 (K562) | GI50 (COLO 205) | GI50 (A498) | GI50 (HCT-116) | GI50 (PC-3) | GI50 (T47D) | GI50 (MDA-MB-435) | GI50 (MDA-MB-231) |
| --- | --- | --- | --- | --- | --- | --- | --- | --- | --- | --- | --- | --- | --- | --- | --- | --- | --- | --- |
| CCc1nc2c(O)ccc(O)c2nc1C | 19.2 µM (inactive) | 3.65 µM (inactive) | 18 µM (inactive) | 16.2 µM (inactive) | 14.3 µM (inactive) | 19.3 µM (inactive) | 18.9 µM (inactive) | 18.1 µM (inactive) | 18.6 µM (inactive) | 24.6 µM (inactive) | 4.08 µM (inactive) | 2.53 µM (inactive) | 20.9 µM (inactive) | 8.38 µM (inactive) | – | – | – | – |
| CC(C)(C)c1cc2c3c(c1)C(C(F)(F)F)(C(F)(F)F)O[Te]3(C)OC2(C(F)(F)F)C(F)(F)F | > 100 µM (inactive) | > 100 µM (inactive) | > 100 µM (inactive) | > 100 µM (inactive) | > 100 µM (inactive) | > 100 µM (inactive) | > 100 µM (inactive) | > 100 µM (inactive) | > 100 µM (inactive) | > 100 µM (inactive) | > 100 µM (inactive) | > 100 µM (inactive) | – | > 100 µM (inactive) | – | – | – | – |
| Cn1c(O)c(C(=O)NC2CCCCC2)c(=O)n(C)c1=S | 6.1 µM (inactive) | 3.56 µM (inactive) | 4.85 µM (inactive) | 8.81 µM (inactive) | 4.57 µM (inactive) | 3.24 µM (inactive) | 7.11 µM (inactive) | 5.89 µM (inactive) | 4.4 µM (inactive) | – | – | 1.94 µM (inactive) | 4.44 µM (inactive) | – | – | – | – | – |
| Cc1ccc(C2(O)CC(c3ccc([N+](=O)[O-])o3)=NN2C(=O)COc2ccccc2Cl)cc1 (centres undefined) | 5.73 µM (inactive) | 3.91 µM (inactive) | 29.2 µM (inactive) | 5.45 µM (inactive) | 3.91 µM (inactive) | 12.5 µM (inactive) | 14.8 µM (inactive) | 19.4 µM (inactive) | 12.4 µM (inactive) | 10.4 µM (inactive) | 7.26 µM (inactive) | 3.78 µM (inactive) | 12.9 µM (inactive) | 5.6 µM (inactive) | – | – | – | – |
| CC12OC3CC(O1)C1(C=O)C4CCC5(C)C(c6ccc(=O)oc6)CCC5(O)C4CCC1(C3)O2 (centres undefined) | 0.0518 µM (active) | 0.0344 µM (active) | 0.146 µM (active) | 0.177 µM (active) | 0.288 µM (active) | 0.304 µM (active) | 0.573 µM (active) | 0.207 µM (active) | – | 0.56 µM (active) | 0.265 µM (active) | 0.483 µM (active) | 0.33 µM (active) | 0.0537 µM (active) | – | – | – | – |
| O=C1CC(c2c(-c3ccccc3)[nH]c3ccccc23)C(=O)N1 (centres undefined) | > 100 µM (inactive) | > 100 µM (inactive) | > 100 µM (inactive) | – | 89.3 µM (inactive) | 76.6 µM (inactive) | – | 71.9 µM (inactive) | > 100 µM (inactive) | > 100 µM (inactive) | > 100 µM (inactive) | – | 90.2 µM (inactive) | > 100 µM (inactive) | – | – | – | – |
| C#CCOCn1cnc2c(Sc3c([N+](=O)[O-])ncn3C)ncnc21 | > 100 µM (inactive) | – | > 100 µM (inactive) | > 100 µM (inactive) | > 100 µM (inactive) | 91.8 µM (inactive) | > 100 µM (inactive) | > 100 µM (inactive) | > 100 µM (inactive) | > 100 µM (inactive) | > 100 µM (inactive) | > 100 µM (inactive) | > 100 µM (inactive) | – | – | – | – | – |
| Fc1ccc(C2SCc3nc4ccccc4n32)c(F)c1 (centres undefined) | 54 µM (inactive) | 30.5 µM (inactive) | > 100 µM (inactive) | 81.5 µM (inactive) | 64.7 µM (inactive) | 42.3 µM (inactive) | > 100 µM (inactive) | > 100 µM (inactive) | 46.3 µM (inactive) | 98.6 µM (inactive) | 34.9 µM (inactive) | > 100 µM (inactive) | > 100 µM (inactive) | 54 µM (inactive) | – | – | – | – |
| CN1N=C(c2ccncc2)OC1c1cccc(C(F)(F)F)c1 (centres undefined) | > 100 µM (inactive) | > 100 µM (inactive) | > 100 µM (inactive) | > 100 µM (inactive) | > 100 µM (inactive) | > 100 µM (inactive) | > 100 µM (inactive) | – | > 100 µM (inactive) | > 100 µM (inactive) | 96.8 µM (inactive) | > 100 µM (inactive) | > 100 µM (inactive) | 67.1 µM (inactive) | > 100 µM (inactive) | 96.6 µM (inactive) | > 100 µM (inactive) | 41.2 µM (inactive) |
| CCOC(=O)CN.CCOC(=O)Nc1ccc(S(=O)(=O)OC)cc1.CCOC(=O)Nc1ccc(S(=O)(=O)OC)cc1 | 17.8 µM (inactive) | > 50 µM (inactive) | > 50 µM (inactive) | > 50 µM (inactive) | > 50 µM (inactive) | > 50 µM (inactive) | > 50 µM (inactive) | > 50 µM (inactive) | > 50 µM (inactive) | > 50 µM (inactive) | > 50 µM (inactive) | > 50 µM (inactive) | > 50 µM (inactive) | > 50 µM (inactive) | – | – | – | – |
| Cc1ccc(O)c(C(=O)CCCC(=O)c2cc(C)ccc2O)c1 | > 100 µM (inactive) | > 100 µM (inactive) | > 100 µM (inactive) | 57.1 µM (inactive) | > 100 µM (inactive) | 44.9 µM (inactive) | 46.1 µM (inactive) | > 100 µM (inactive) | > 100 µM (inactive) | 0.152 µM (active) | 35 µM (inactive) | > 100 µM (inactive) | > 100 µM (inactive) | – | – | – | – | – |
| Cc1c(/C=N/NS(=O)(=O)c2ccccc2)no[n+]1[O-] | – | > 100 µM (inactive) | – | – | > 100 µM (inactive) | 2.92 µM (inactive) | 37.9 µM (inactive) | > 100 µM (inactive) | > 100 µM (inactive) | – | > 100 µM (inactive) | > 100 µM (inactive) | > 100 µM (inactive) | > 100 µM (inactive) | – | – | – | – |
| COc1cc(C)c(/C=C/C(=O)N2C(=O)OC[C@@H]2c2ccccc2)c(C)c1 | – | 31.1 µM (inactive) | > 100 µM (inactive) | > 100 µM (inactive) | – | > 100 µM (inactive) | > 100 µM (inactive) | > 100 µM (inactive) | > 100 µM (inactive) | 73.1 µM (inactive) | 78.9 µM (inactive) | > 100 µM (inactive) | 52.5 µM (inactive) | 89.3 µM (inactive) | 50.4 µM (inactive) | 23.2 µM (inactive) | > 100 µM (inactive) | > 100 µM (inactive) |
| CC(C(=O)c1ccc(O)cc1)C1(O)C(=O)Nc2c(Cl)cc(Cl)cc21 (centres undefined) | > 86.1 µM (inactive) | 28.9 µM (inactive) | > 100 µM (inactive) | 24.8 µM (inactive) | 14 µM (inactive) | > 56.6 µM (inactive) | > 77.6 µM (inactive) | > 100 µM (inactive) | 59.8 µM (inactive) | > 100 µM (inactive) | 2.56 µM (inactive) | > 100 µM (inactive) | > 49.1 µM (inactive) | 43.1 µM (inactive) | – | – | – | – |
| CC(=O)OC1C/C(C)=C/[C@H](O)CC(C)/C=C/[C@@]2(C)CCC(C(C)(C)O)C12 (some centres undefined) | > 100 µM (inactive) | > 100 µM (inactive) | > 100 µM (inactive) | > 100 µM (inactive) | > 100 µM (inactive) | > 100 µM (inactive) | > 100 µM (inactive) | > 100 µM (inactive) | > 100 µM (inactive) | > 100 µM (inactive) | > 100 µM (inactive) | > 100 µM (inactive) | > 100 µM (inactive) | > 100 µM (inactive) | – | – | – | – |
| Cn1ccc(=NS(=O)(=O)c2ccccc2)cc1 | > 100 µM (inactive) | > 100 µM (inactive) | > 100 µM (inactive) | > 100 µM (inactive) | – | > 100 µM (inactive) | > 100 µM (inactive) | – | > 100 µM (inactive) | > 100 µM (inactive) | > 100 µM (inactive) | > 100 µM (inactive) | > 100 µM (inactive) | > 100 µM (inactive) | – | – | – | – |
| COC(=O)/C(C#N)=C1\CCc2ccccc21 | > 100 µM (inactive) | > 100 µM (inactive) | – | > 100 µM (inactive) | > 100 µM (inactive) | > 100 µM (inactive) | > 100 µM (inactive) | > 100 µM (inactive) | > 100 µM (inactive) | > 100 µM (inactive) | > 100 µM (inactive) | > 100 µM (inactive) | > 100 µM (inactive) | – | – | – | – | – |
| CCCCCCCCCC1C(C)c2c([nH]c3ccccc23)C2C(=O)N(c3ccccc3)C(=O)C21 (centres undefined) | 4.18 µM (inactive) | 2.54 µM (inactive) | 17.2 µM (inactive) | – | 18.3 µM (inactive) | 13 µM (inactive) | – | 14 µM (inactive) | 3.72 µM (inactive) | 12.9 µM (inactive) | 3.67 µM (inactive) | – | 19.2 µM (inactive) | 2.94 µM (inactive) | – | – | – | – |
| NC1=NS(=O)(=O)Nc2nc(-c3ccccc3)c(-c3ccccc3)nc21 | > 100 µM (inactive) | > 100 µM (inactive) | – | > 100 µM (inactive) | > 100 µM (inactive) | > 100 µM (inactive) | > 100 µM (inactive) | – | > 100 µM (inactive) | > 100 µM (inactive) | > 100 µM (inactive) | > 100 µM (inactive) | – | > 100 µM (inactive) | – | – | – | – |
| CC1NS(=O)(=O)N(C)C1=O (centres undefined) | – | > 100 µM (inactive) | > 100 µM (inactive) | > 100 µM (inactive) | > 100 µM (inactive) | – | – | > 100 µM (inactive) | > 100 µM (inactive) | > 100 µM (inactive) | > 100 µM (inactive) | – | – | > 100 µM (inactive) | – | – | – | – |
| COc1cc(CNc2cnc3cc(N)ccc3n2)cc(OC)c1OC | 30.8 µM (inactive) | 15.9 µM (inactive) | 51.4 µM (inactive) | 23.9 µM (inactive) | 12.7 µM (inactive) | 36.8 µM (inactive) | 34.8 µM (inactive) | 34.7 µM (inactive) | 28.5 µM (inactive) | 35.1 µM (inactive) | 5.53 µM (inactive) | 22.4 µM (inactive) | 26.5 µM (inactive) | 18.7 µM (inactive) | – | – | – | – |
